According to patent US20240041976A1, “COMPOSITION AND USE” (priority 2020, published 2024):
No end group written: not given here.

Tests used:
[1] = test system: S. haemolyticus strains 4068-4073; assay: microbe, parasite or virus in culture; assay type: cell-based; conditions: 5 hour incubation
Experimental: Bacteriocins and antimicrobial assays. K1-EJ and garvicin KS peptides (Gak-A, -B and -C) were synthesized by Pepmic Co., Ltd, China, with >95% purity. These bacteriocins were all solubilized in 0.1% (vol/vol) trifluoracetic acid (TFA; Sigma-Aldrich). Micrococcin P1 was purchased from Cayman Chemical, Michigan, USA with 95% purity and solubilized in a 50% (v/v) mixture of isopropanol (Merck) […] (Sigma-Aldrich) at a stock concentration of 1 mg/ml. Cell growth inhibition assays and antimicrobial synergy determination was performed in line with Example 1.
To investigate whether there was synergy between the three bacteriocins (K1-EJ, GarKS and MP1), a checkboard antimicrobial assay was performed. The selected strains were treated for 5, 24 and 48 h with a range of concentrations of K1-EJ, GarKS and MP1 alone or in different combinations. […] Double combinatorial treatments (GarKS/MP1; K1-EJ/GarKS; K1-EJ/MP1) increased the antimicrobial activity of the bacteriocins. […] This was particularly evident at the 24 and 48 h time-points.

MRSA ATCC 33591 = assay: microbe, parasite or virus in culture; assay type: cell-based, Staphylococcus aureus; conditions: Staphylococcus aureus, 24 h, read-out: MIC, single antimicrobial
Experimental: (§1) Antimicrobial activity was measured using the AAMP assay (Wiegand et al., 2008, Nat. Protoc., Vol. 3(2), p 163-175).
(§2) Synergy testing was done with a microtiter plate checkerboard assay as previously described (Orhan et al., 2005, J. Clin. Microbiol., Vol. 43(1), p 140-143). Briefly, equal amounts of antimicrobial A were applied on microtiter plate 1 in wells A1-H1 and then diluted two-fold to wells 2-12. Similarly, equal amounts of antimicrobial B were applied on microtiter plate 2 in wells A1-A12 and diluted two-fold in wells B-H. Volumes of 50 μl of antimicrobial A from each well of microtiter plate 1 were transferred into microtiter plate 3, except for wells H1-H12. Similarly, the same volumes were transferred from microtiter plate 2 into plate 3, except for wells A1-A8. A 100 μl volume of 25 times diluted ON bacterial culture of MRSA was transferred into each well of plate 3. A 50 μl volume of pure broth was added into each well in lines H1-H12 and A1-A8 which were used to estimate MIC values of pure substances (blank).
(§3) Antimicrobial activity was measured using the AAMP assay as described in Example 2.
(§4) Synergy testing was performed as in Example 2.

[2] = test system: S. aureus biofilms (six strains); assay: BOAT, summary over strains; assay type: cell-based, Staphylococcus aureus
Experimental: The BOAT assay was performed as described previously (Gronseth et al., 2017, Int. J. Pediatr. Otorhinolaryngol., Vol. 103, p 58-64) with some modifications. The serial dilutions of the antimicrobials were prepared in challenge plates as follows: 175 μl of TSB were transferred in each row of a 96-well microtiter plate, except for the first row, according to the number of microbial strains to treat. In the first row of the plate, the antimicrobials were diluted to their respective working concentrations in a final volume of 350 μl of TSB. From the first row, 175 μl of the antimicrobial dilutions were then transferred to the second row of the plate and further serially diluted to the bottom of the plate. The same procedure was followed to prepare the controls, except that instead of the antimicrobials an equivalent volume of the respective vehicles were used. […] The results were then assessed by monitoring the development (or not) of red formazan (red colour), denoting the retention of metabolic activity by bacterial cells (Moussa et al., 2013, J. Mycol., Vol. 2013; Perez et al., 2010, Lett. Appl. Microbiol., Vol. 51, p 331-337). […] The amount of extracted dye, reflecting the degree of bacterial cell metabolic activity, was then quantified by spectrophotometric readings at 492 nm.

E.faecalis 3689 = assay: microbe, parasite or virus in culture; assay type: cell-based, Enterococcus faecalis
Experimental: as §1, §2, §3, §4

E. faecalis 3351 = assay: microbe, parasite or virus in culture; assay type: cell-based, Enterococcus faecalis
Experimental: as §1, §2, §3, §4

[3] = test system: Methicillin-Resistant Staphylococcus aureus; assay type: in vivo, mice; conditions: repeat on larger groups; data not shown
Experimental: The experiment was performed essentially as set out in Example 2, except that the following regimes as described below, were used.
50-70 μl of cream was applied per wound.
Treatment was daily for 4 days.
The rifampicin/MP1 experiment was repeated on a larger group of mice in each category (8 mice for each of rifampicin, MP1, rifampicin+MP1, 8 mice with APO base cream 30% as used for rifampicin and MP1, 7 mice untreated). Seven mice were also treated with fucidin cream (2% fusidic acid in a cream base) as a positive control.

[4] = test system: S. aureus ATTC 33591 biofilm; assay: LIVE/DEAD biofilm staining, confocal microscopy; assay type: cell-based, Staphylococcus aureus; conditions: data not shown

For C/C=C(\NC(=O)c1csc(-c2csc(-c3ccc4c(n3)-c3csc(n3)[C@H]([C@@H](C)O)NC(=O)c3csc(n3)[C@H](C(C)C)NC(=O)c3csc(n3)/C(=C/C)NC(=O)[C@H]([C@@H](C)O)NC(=O)c3csc-4n3)n2)n1)C(=O)NC[C@@H](C)O [MP1, micrococcin P1], the MIC50 ([1]; Staphylococcus haemolyticus, STRAINS40684073, read-out: MIC50 values over strains) was 0.02 to 0.15 µg/mL, the MIC (MRSA ATCC 33591) was 2.5 µg/mL and the “effect on biofilm-associated metabolic activity (BOAT)” value ([2]; six strains, up to 5 mg/ml garvicin KS, 0.1 mg/ml micrococcin P1) was “ineffective against all the strains”. For the same molecule, the “increase in resistance compared to the planktonic state” value ([2]; some of the biofilm producers) was “over 160 fold”, the MIC (E.faecalis 3689; Enterococcus faecalis, E.faecalis 3689, read-out: MIC, single antimicrobial) was > 45 µg/mL and the MIC (E. faecalis 3351; Enterococcus faecalis, E. faecalis 3351, read-out: MIC, single antimicrobial) was > 45 µg/mL. For the same molecule, the “antimicrobial effect in the mouse skin wound model” value [3] was “Neither MP1 nor the cream base showed any antimicrobial effect”.

With CC1(C)S[C@@H]2[C@H](NC(=O)Cc3ccccc3)C(=O)N2[C@H]1C(=O)O [Penicillin G] the LIVE/DEAD staining pattern [4] was “increased resistance”.

“MKFKFNPTGTIVKKLTQYEINWYKQQYGRYPWERPVA [Hybrid K1-EJ]” was tested, and the “MIC50 values over strains” value [1] was 0.78 µg/mL, the “MIC, single antimicrobial” value (E.faecalis 3689; 3689) was >25 µg/mL and the “MIC of MP1 in comb. with the labelled antimicrobial” value (E.faecalis 3689; E.faecalis 3689) was 3 µg/mL. For the same molecule, the “MIC of the labelled antimicrobial in comb. with MP1” value (E.faecalis 3689; E.faecalis 3689) was 1.5 µg/mL, the “MIC, single antimicrobial” value (E. faecalis 3351; 3351) was >25 µg/mL and the “MIC of MP1 in comb. with the labelled antimicrobial” value (E. faecalis 3351; E. faecalis 3351) was 5.6 µg/mL. For the same molecule, the “MIC of the labelled antimicrobial in comb. with MP1” value (E. faecalis 3351; E. faecalis 3351) was 3 µg/mL.

B1: Garvicin KS: three-peptide leaderless bacteriocin (GarA, GarB, GarC; SEQ ID NO:6-8), peptides synthesized (peptide, listed as Lactococcus garvieae)
chain 1: MGAIIKAGAKIVGKGVLGGGASWLGWNVGEKIWK
chain 2: MGAIIKAGAKIIGKGLLGGAAGGATYGGLKKIFG
chain 3: MGAIIKAGAKIVGKGALTGGGVWLAEKLFGGK
With B1 the LIVE/DEAD staining pattern [4] was “increased resistance”.
